Measurements reported in patent US20140356383A1, “ADMINISTRATION OF AN ANTI-GCC ANTIBODY-DRUG CONJUGATE AND A DNA DAMAGING AGENT IN THE TREATMENT OF CANCER” (priority 2013, published 2014).
Where “and” joins values, the source holds several entries; their conditions need not be identical. Equal entries are not always repeated.

What was measured:
[1] = system: PHTX-249 Pa primary human pancreatic tumor xenograft; assay: Single-agent 5F9 vcMMAE in PHTX-249 Pa pancreatic xenograft; format: in vivo, mice
From the text: (§1) The purpose of this study was to evaluate in vivo anti-tumor activity induced by combined administration of the 5F9 vcMMAE immunoconjugate (sometimes referred to herein as “MLN0264”) and gemcitabine in mouse xenograft primary human tumor explants (PHTX models of pancreatic cancer. These models included tumor tissue from patients with wild-type and mutant KRAS. Five pancreatic PHTX were generated by Champions Oncology (Hackensack, N.J.) using their CTG platform. 2 PHTX models were developed in-house. GCC expression was evaluated in each of the 7 PHTX models using the automated IHC assay described above.
(§2) In vivo anti-tumor studies of single-agent 5F9 vcMMAE immunoconjugate was conducted in all seven of the pancreatic subcutanreous xenograft mouse models. Animals were administered vehicle, free MMAE at 0.135 mg/kg once weekly (QW), a non-GCC targeting ADC at 7.5 mg/kg QW, or 5F9 vcMMAE at 3.75 or 7.5 mg/kg QW. The results for single agent activity of the immunoconjugate in PHTX-215 Pa and PHTX-249 Pa models is shown in FIGS. 15A and 15B, respectively.

PHTX-17c s.c. xenograft = assay: MLN0264 and CPT-11 in PHTX-17C s.c. xenografts (Study CPGC-11-EF06); format: in vivo, CB-17 SCID mice
Protocol: (§3) Tumor volume was calculated using the formula: […]

[2] = system: PHTX-21c primary human mCRC tumor xenograft; assay: 5F9 vcMMAE single agent efficacy in PHTX-21c; format: in vivo, SCID mice; details: for anti-tumor activity maintained post-dosing: last dose on day 22
[3] = system: PHTX-249 Pa s.c. xenograft; assay: 5F9 vcMMAE and gemcitabine in PHTX-249 Pa s.c. xenografts (Study CPGC-13-EF08); format: in vivo, CB-17 SCID mice
Protocol: 264.4 ul stock Gemcitabine into 3135.6 ul NS.
Day D0 was the first day of treatment.
as §3
A negative dAUC is interpreted as an increase in AUC relative to the reference. It is important to evaluate not only the P value, but also the dAUC. Comparisons with significant P values, but small dAUC values, may not be of interest.

[4] = system: CTG pancreatic PHTX models (Champions Oncology); assay: Single-agent 5F9 vcMMAE in Champions CTG pancreatic PHTX models; format: in vivo, mice
From the text: as §1, §2

[5] = system: PHTX-215 Pa primary human pancreatic tumor xenograft; assay: Single-agent 5F9 vcMMAE in PHTX-215 Pa pancreatic xenograft; format: in vivo, mice
From the text: as §1, §2

293-GCC#2 tumors = assay: PK/PD study (phospho-histone H3) in 293-GCC#2 tumor bearing mice; format: in vivo
From the text: Phospho-histone H3 was detected by antibody (Upstate Biotechnology, now Millipore, Billerica, Mass.) staining of paraffin embedded sections of tumors.

PHTX-09c s.c. xenograft = assay: 5F9 vcMMAE and cisplatin in PHTX-09c s.c. xenografts (Study CPGC-11-EF05); details: reference vehicle
Protocol: The endpoints for each treatment group was either a) tumor volume reaches 10% body weight; or b) body weight loss of >20%. The projected tumor volume at the study initiation date was 200 mm^3.
Not greater than one day prior to dosing, all animals were weighed to the nearest gram and grouped. Dosing solutions were vortexed prior to each administration to ensure correct delivery of compound. Animals received approximately 0.1 ml doses administered I.V. using a 1 cc syringe, 27-30 gauge, ½-¾ inch in length.
Tumor volume measurements were obtained twice per week using Vernier calipers (0.01 mm). Tumor volume was calculated using the formula:
Efficacy was evaluated in terms of % tumor growth inhibition (TGI) and tumor growth delay (TGD); the difference in days for treated vs. control tumors to reach final study volume).
TGI was assessed on an arbitrary day (when the maximum tumor volume (“MTV” of the control treatment group reaches the maximum allowable tumor volume), using the following formula:
TGD was assessed by calculating T−C, where T=mean time (in days) for treatment group tumors to reach a predetermined size, and where C=mean time (in days) for the control group tumors to reach a predetermined size (e.g., 1,000 mm^3).
The predicted differences in the log tumor values (Yijk−Yi0k, which can be interpreted as log10 (fold change from day 0)) were taken from the above models to calculate mean AUC values for each treatment group. A dAUC value was then calculated as:
For synergy analyses, the observed differences in the log tumor values were used to calculate AUC values for each animal. […] The AUC for the control, or vehicle, group was calculated using the predicted values from the pairwise models described above. A measure of synergy was defined as follows:
where Ak and Bk are the k^th animal in the individual treatment groups and ABk is the k^th animal in combination treatment group. […] The standard error of the synergy score was calculated as the square root of the sum of squared standard errors across groups A, B, and AB. […]

[6] = group A: MLN0264 7.5 mg/kg QW, reference vehicle

5F9 vcMMAE: 5F9 mAb conjugated to MMAE using a vc (Val-Cit) linker; average drug loading about 3.6
tumor growth inhibition ([1]; PHTX-249 Pa, by day 21): significant TGI versus vehicle or free MMAE
TGI, % ([1]; model PHTX-249, KRAS Mut G12D, QWx3, day 21): 47%
Days to 1000 mm^3 (PHTX-17c s.c. xenograft; PHTX-17c, ML0264 7.5 mg/kg QW): >17 days
Mean tumor volume ± S.E.M (mm3) (PHTX-17c s.c. xenograft; PHTX-17c, ML0264 7.5 mg/kg QW): 886.1 ± 187.9 mm3
T/C (PHTX-17c s.c. xenograft; PHTX-17c, ML0264 7.5 mg/kg QW): 0.49
TGI (PHTX-17c s.c. xenograft; PHTX-17c, ML0264 7.5 mg/kg QW): 51%
dAUC (PHTX-17c s.c. xenograft; [6]): 28.9%
anti-tumor activity maintained post-dosing ([2]; 7.5 mg/kg): 7-8 weeks
anti-tumor activity maintained post-dosing ([2]; 10 mg/kg): > 15 weeks
single agent anti-tumor activity ([2]; 3.75-10 mg/kg I.V. QW×4): Moderate to strong in vivo anti-tumor activity
T/C ([2]; dose 3.75-10 mg/kg, QW, T/C=volume of tumor/control): 0.23
tumor regressions (animals) ([3]; PHTX-249 Pa (Studies CPGC-13-EF05/EF08), 5F9 vcMMAE 7.5 mg/kg, gemcitabine 15 mg/kg on days 1 and 3, alone or combined): no tumor regressions
dAUC [3, 6]: 28.9%
TGI, % ([4]; model CTG-0300, KRAS Mut G12V, QWx5, day 28): 64%
TGI, % ([4]; model CTG-0301, KRAS wild-type, QWx3, day 21): 24%
TGI, % ([4]; model CTG-0302, KRAS Mut G12R, QWx3, day 21): 36%
TGI, % ([4]; model CTG-0303, KRAS wild-type, QWx5, day 38): 45%
TGI, % ([4]; model CTG-0492, KRAS Mut G12V, QWx3, day 21): 62%
tumor regressions (animals) ([5]; PHTX-215 Pa (KRAS wt), 7.5 mg/kg QW): 3 out of 8
tumor growth inhibition ([5]; PHTX-215 Pa, 7.5 mg/kg QW, by day 22): significantly great tumor growth inhibition (TGI) versus free MMAE
TGI, % ([5]; single agent, model PHTX-215, KRAS wild-type, QWx3, day 21): 79%
Average % Tumor cells pH 3 positive (293-GCC#2 tumors; single iv dose 75 μg/kg, 1 hr): 4.525%
Average % Tumor cells pH 3 positive (293-GCC#2 tumors; single iv dose 75 μg/kg, 4 hr): 2.552%
Average % Tumor cells pH 3 positive (293-GCC#2 tumors; single iv dose 75 μg/kg, 8 hr): 4.244%
Average % Tumor cells pH 3 positive (293-GCC#2 tumors; single iv dose 75 μg/kg, 24 hr): 9.8199%
Average % Tumor cells pH 3 positive (293-GCC#2 tumors; single iv dose 75 μg/kg, 48 hr): 8.692%
Average % Tumor cells pH 3 positive (293-GCC#2 tumors; single iv dose 75 μg/kg, 96 hr): 8.628%
Average % Tumor cells pH 3 positive (293-GCC#2 tumors; single iv dose 150 μg/kg, 1 hr): 3.335%
Average % Tumor cells pH 3 positive (293-GCC#2 tumors; single iv dose 150 μg/kg, 4 hr): 2.785%
Average % Tumor cells pH 3 positive (293-GCC#2 tumors; single iv dose 150 μg/kg, 8 hr): 4.576%
Average % Tumor cells pH 3 positive (293-GCC#2 tumors; single iv dose 150 μg/kg, 24 hr): 13.79%
Average % Tumor cells pH 3 positive (293-GCC#2 tumors; single iv dose 150 μg/kg, 48 hr): 14.26%
Average % Tumor cells pH 3 positive (293-GCC#2 tumors; single iv dose 150 μg/kg, 96 hr): 14.68%
dAUC (PHTX-09c s.c. xenograft; group A: MLN0264 1.875 mg/kg IV QW x3): 17.8%
dAUC (PHTX-09c s.c. xenograft; group B: MLN0264 3.75 mg/kg IV QW x3, 3.75 mg/kg): 28.4% and 44.8%
